# According to PubChem BioAssay AID2060499 (Molecular Pharmacology Branch, DTP, NCI, 2025):
# Several values for one entry are separate records, joined by “and”; a condition that tells them apart may be missing. Identical values can stand only once.
# System: 777334-354-R2-J4-PDC tumor spheroids with HUVEC/MSC, viability
# Assay: Anticancer human tumor 777334-354-R2-J4-PDC patient-derived pancreatic adenocarcinoma cell line growth inhibition [GQUAD]
# Details: for viability, T/C: stronger effect = lower value
# From the text: DNA G-quadruplex Stabilizer Agents in Combinations in Complex Spheroids
# A high-throughput screen of multi-cell type tumor spheroids was designed to identify active combinations of DNA G-quadruplex stabilizer agents and targeted small molecules. Complex spheroids include a stromal component modeled by human endothelial cells (HUVEC) and fibroblasts modeled by human mesenchymal stem cells (MSCs). The concentration ranges selected for each drug and investigational agent were based upon clinically achievable concentrations if the clinical Cmax of the agent was known.
# Compounds. The drugs and investigational agents: pidnarulex (CX-5461; NSC782164), APTO-253 (NSC789042), BRACO-19 (NSC847499), peposertib (NSC802822), ceralasertib (NSC780249), elimusertib (NSC800525), camonsertib (NSC841442), AZD-1390 (NSC803789), olaparib (NSC753686), talazoparib (NSC767125), ART-558 (NSC835418), sotorasib (NSC818433), MRTX-1133 (NSC836407), SN-38 (NSC673596), topotecan (NSC609699), etoposide (NSC141540), doxorubicin (NSC123127), gemcitabine (NSC613327), 5-fluorouracil (NSC19893), paclitaxel (NSC125973), vemurafenib (NSC761431), panobinostat (NSC761190), R-306465 (JNJ-16241199; NSC773264), adavosertib (NSC754352), TP-3654 (NSC805149), carboplatin (NSC241240), KSQ-4279 (NSC840948), and staurosporine (NSC755774) were obtained from the National Cancer Institute (NCI) Developmental Therapeutics Program Chemical Repository (34). The FDA-approved anticancer drug set is available from the NCI Developmental Therapeutics Program. […] The stock solutions were prepared in dimethyl sulfoxide (DMSO, Sigma-Aldrich, St. Louis, MO, cat. D2650) at 800-fold the tested concentration and stored at -70 degrees C prior to their use. All drugs and investigational agents were tested over a range starting from a high concentration at or near the clinical Cmax and decreasing in half-log increments. If the clinical Cmax for an agent had not been determined, the highest concentration tested was 10 microM.
# 2.3 Cell Culture. All cells were maintained in an incubator at 37 degrees C and 5% CO2 with 95% humidity. The PDC lines were cultured according to standard operating procedures established by the NCI PDMR. All PDCs were thawed and cultured in Matrigel-coated flasks prepared with a working solution of 1X Ham's F-12 nutrient mix, without supplementation (Invitrogen, cat. 11765054), 100 U/mL penicillin-streptomycin (Invitrogen, cat. 15140122), and 2.5% Matrigel (Corning Inc., cat. 354248) for the first three passages. The 857933-349-R-J2-PDC line was cultured in 6C/Colon 1B media, which includes advanced DMEM/F-12 (Thermo Fisher Scientific, cat. 12634028), 10 mM HEPES (Thermo Fisher Scientific, cat. 15630080), 1X GlutaMAX supplement (Thermo Fisher Scientific, cat. 35050061), 0.1 mg/mL primocin (InvivoGen, cat. ant-pm-2), 10% defined fetal bovine serum, heat inactivated (HyClone Laboratories Inc., cat. SH30070.03HI), 50% L-WRN conditioned media (ATCC, cat. CRL-3276), 1.25 mM N-Acetyl-L-cysteine (Sigma-Aldrich, cat. A9165), 10 mM nicotinamide (Sigma-Aldrich, cat. N0636), 1X B-27 supplement (Thermo Fisher Scientific, cat. 17504044), 1X N-2 supplement (Thermo Fisher Scientific, cat. 17502048), 10 microM Y-27632 dihydrochloride (Tocris Bioscience, cat. 1254), and 50 ng/mL human EGF recombinant protein (Thermo Fisher Scientific, cat. PHG0311). The 485176-168-R4-J1-PDC line was cultured in Panc media, which includes all 6C/Colon 1B media components plus 100 ng/mL human FGF-10 (Thermo Fisher Scientific, cat. 100-26), 500 nM SB-431542 (Selleckchem, cat. S1067), and gastrin (Tocris, cat. 3006).
# […]
# [1] = curve of first compound, second compound 0.0316 µM
# [2] = curve of first compound, second compound 0.1 µM
# [3] = curve of first compound, second compound 0.316 µM
# [4] = curve of first compound, second compound 1 µM
# [5] = curve of first compound, second compound 3.16 µM
# [6] = curve of first compound, second compound 10 µM
# [7] = second compound 0.0316 µM, first compound 0.0316 µM
# [8] = second compound 0.0316 µM, first compound 0.1 µM
# [9] = second compound 0.0316 µM, first compound 0.316 µM
# [10] = second compound 0.0316 µM, first compound 1 µM
# [11] = second compound 0.0316 µM, first compound 3.16 µM
# [12] = second compound 0.0316 µM, first compound 10 µM
# [13] = second compound 0.1 µM, first compound 0.0316 µM
# [14] = second compound 0.1 µM, first compound 0.1 µM
# [15] = second compound 0.1 µM, first compound 0.316 µM
# [16] = second compound 0.1 µM, first compound 1 µM
# [17] = second compound 0.1 µM, first compound 3.16 µM
# [18] = second compound 0.1 µM, first compound 10 µM
# [19] = second compound 0.316 µM, first compound 0.0316 µM
# [20] = second compound 0.316 µM, first compound 0.1 µM
# [21] = second compound 0.316 µM, first compound 0.316 µM
# [22] = second compound 0.316 µM, first compound 1 µM
# [23] = second compound 0.316 µM, first compound 3.16 µM
# [24] = second compound 0.316 µM, first compound 10 µM
# [25] = second compound 1 µM, first compound 0.0316 µM
# [26] = second compound 1 µM, first compound 0.1 µM
# [27] = second compound 1 µM, first compound 0.316 µM
# [28] = second compound 1 µM, first compound 1 µM
# [29] = second compound 1 µM, first compound 3.16 µM
# [30] = second compound 1 µM, first compound 10 µM
# [31] = second compound 3.16 µM, first compound 0.0316 µM
# [32] = second compound 3.16 µM, first compound 0.1 µM
# [33] = second compound 3.16 µM, first compound 0.316 µM
# [34] = second compound 3.16 µM, first compound 1 µM
# [35] = second compound 3.16 µM, first compound 3.16 µM
# [36] = second compound 3.16 µM, first compound 10 µM
# [37] = second compound 10 µM, first compound 0.0316 µM
# [38] = second compound 10 µM, first compound 0.1 µM
# [39] = second compound 10 µM, first compound 0.316 µM
# [40] = second compound 10 µM, first compound 1 µM
# [41] = second compound 10 µM, first compound 3.16 µM
# [42] = second compound 10 µM, first compound 10 µM
# 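Note: spheroids exposed to compounds for 7 days before readout.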
smiles,measurement,setting,value
CC1COCCN1c1cc(C2(S(C)(=N)=O)CC2)nc(-c2ccnc3[nH]ccc23)n1 (stereo unspecified) + CN(C)c1ccc(Nc2c3ccc(NC(=O)CCN4CCCC4)cc3nc3cc(NC(=O)CCN4CCCC4)ccc23)cc1,IC50,[1],> 10 µM
same,IC50,[2],> 10 µM
same,IC50,[3],> 10 µM
same,IC50,[4],8.96 µM
same,IC50,[5],7.8 µM
same,IC50,[6],8.89 µM
same,"viability, T/C",[7],89%
same,"viability, T/C",[8],85.8%
same,"viability, T/C",[9],98.5%
same,"viability, T/C",[10],86.8%
same,"viability, T/C",[11],79.3%
same,"viability, T/C",[12],58.3%
same,"viability, T/C",[13],107%
same,"viability, T/C",[14],84.6%
same,"viability, T/C",[15],98.2%
same,"viability, T/C",[16],95.2%
same,"viability, T/C",[17],79.7%
same,"viability, T/C",[18],57.1%
same,"viability, T/C",[19],92.5%
same,"viability, T/C",[20],95.9%
same,"viability, T/C",[21],100%
same,"viability, T/C",[22],82.9%
same,"viability, T/C",[23],85.2%
same,"viability, T/C",[24],50.5%
same,"viability, T/C",[25],90.5%
same,"viability, T/C",[26],79.8%
same,"viability, T/C",[27],74.7%
same,"viability, T/C",[28],83.9%
same,"viability, T/C",[29],79.5%
same,"viability, T/C",[30],46.9%
same,"viability, T/C",[31],80.5%
same,"viability, T/C",[32],82.6%
same,"viability, T/C",[33],86.8%
same,"viability, T/C",[34],78.6%
same,"viability, T/C",[35],67.7%
same,"viability, T/C",[36],45.1%
same,"viability, T/C",[37],82.3%
same,"viability, T/C",[38],78.3%
same,"viability, T/C",[39],72.7%
same,"viability, T/C",[40],67.7%
same,"viability, T/C",[41],65.2%
same,"viability, T/C",[42],47.5%
O=C(NO)c1cnc(N2CCN(S(=O)(=O)c3ccc4ccccc4c3)CC2)nc1 + Cc1cnc(CNC(=O)c2c(=O)c3ccc(N4CCCN(C)CC4)nc3n3c2sc2ccccc23)cn1,IC50,[1],0.726 µM
same,IC50,[2],0.332 µM
same,IC50,[3],0.537 µM
same,IC50,[4],0.474 µM
same,IC50,[5],0.331 µM
same,IC50,[6],< 0.0316 µM
same,"viability, T/C",[7],83.7%
same,"viability, T/C",[8],71.9%
same,"viability, T/C",[9],77.2%
same,"viability, T/C",[10],39.7%
same,"viability, T/C",[11],3.07%
same,"viability, T/C",[12],0.21%
same,"viability, T/C",[13],90.3%
same,"viability, T/C",[14],63.1%
same,"viability, T/C",[15],55.2%
same,"viability, T/C",[16],36.6%
same,"viability, T/C",[17],5.24%
same,"viability, T/C",[18],0.33%
same,"viability, T/C",[19],69.3%
same,"viability, T/C",[20],72%
same,"viability, T/C",[21],53.8%
same,"viability, T/C",[22],42.7%
same,"viability, T/C",[23],5.34%
same,"viability, T/C",[24],0.23%
same,"viability, T/C",[25],65.6%
same,"viability, T/C",[26],60%
same,"viability, T/C",[27],55%
same,"viability, T/C",[28],37.7%
same,"viability, T/C",[29],4.8%
same,"viability, T/C",[30],0.13%
same,"viability, T/C",[31],49%
same,"viability, T/C",[32],53.8%
same,"viability, T/C",[33],50.2%
same,"viability, T/C",[34],31.5%
same,"viability, T/C",[35],0.68%
same,"viability, T/C",[36],0.12%
same,"viability, T/C",[37],50.2%
same,"viability, T/C",[38],44.8%
same,"viability, T/C",[39],48.4%
same,"viability, T/C",[40],0.22%
same,"viability, T/C",[41],2.65%
same,"viability, T/C",[42],0.22%
O=c1[nH]cc(F)c(=O)[nH]1,"viability, T/C",compound 0.0316 µM,103% (2×) and 96.5%
same,"viability, T/C",compound 0.1 µM,103% and 97.9% and 98.6%
same,"viability, T/C",compound 0.316 µM,104% and 107% and 115%
same,"viability, T/C",compound 1 µM,75.3% and 73.9% and 78%
same,"viability, T/C",compound 3.16 µM,69.9% and 72.7% and 71.7%
same,"viability, T/C",compound 10 µM,63.2% and 65.2% and 59.8%
same,IC50,curve of compound,> 10 µM
